{"source": "patent US20260007717A1", "about": "“ANTIMICROBIAL PEPTIDE COMPOUNDS AND METHODS OF USE” (priority 2022, published 2026)", "key": {"[1]": {"tested_on": "pan-drug resistant (PDR) Acinetobacter baumannii YQ4", "assay": "microbe, parasite or virus in culture"}, "A. baumannii YQ4 biofilm": {"tested_on": "A. baumannii YQ4 biofilm", "assay": "Static biofilm inhibition, crystal violet", "format": "cell-based, Acinetobacter baumannii", "method": "200 μl culture was seeded in each cell of the 96-well PVC plate with OD600 0.01 (ca. 1×10^6 CFU/ml), which was exposed to different COG1410 solution with the final concentrations ranging from 0.5 to 128 μg/ml. Each concentration was determined in 8 wells. After incubation 37° C. for 48 h, the planktonic bacteria were removed by washing three times with sterilized water, followed by fixing in methanol for 15 min and staining with 0.1% crystal violet (CV) for 15 min. Excess CV was washed off and the bound CV was eluted from the biofilm into 150 μl of 95% ethanol and quantitated spectrophotometrically at 600 nm using a Biotek Synergy H1 plate reader. The experiments were performed in triplicate."}, "[2]": {"tested_on": "A. baumannii ATCC19606 and LPS-modified strains pmrAP102R and pmrAP102RmiaAI221V", "assay": "MIC on wild-type and LPS-modified strains", "format": "cell-based, Acinetobacter baumannii", "conditions": "LB broth", "method": "MIC was determined against A. baumannii wild-type strain ATCC19606 and the corresponding LPS-defective mutants with pmrAP102R and pmrAP102RmiaAI221V mutation in LB broth."}, "[3]": {"tested_on": "pan-drug resistant (PDR) Acinetobacter baumannii YQ4"}, "P. gingivalis": {"tested_on": "P. gingivalis", "format": "cell-based", "conditions": "anaerobic BHI broth", "procedure": "Briefly, P. gingivalis is grown under anaerobic conditions to mid-log phase as per Dominy et al. […] The microtiter plate method outlined by Jansen (ibid) was used to measure MICs. Compounds and bacteria are added to wells of a microtiter plate and grown anaerobically (P. gingivalis) or with CO2 (L. salivarius) for 24 to 72 hours. Growth is measured with light scattering at 592 nm on a plate reader and absorbance plotted against μg/ml of drug in each well."}, "A. baumanii YQ4": {"tested_on": "A. baumanii YQ4", "assay": "Induction of resistance through serial passage", "conditions": "after 55 passages at sub-MIC", "method": "The initial concentration of the tested compounds was set up as 1/32×MIC and doubled every 10 passages. The 1 ml of bacterial culture was stored in 10% sterile glycerol at −80° C. every 5 passages. The MIC value of collected cultures and original strains were measured through the micro-dilution method."}, "A. baumannii YQ4 [4]": {"tested_on": "A. baumannii YQ4", "procedure": "The checkerboard method was performed to determine the fractional inhibitory concentration (FIC) index between COG1410 and other antimicrobials. Two-fold serial dilutions of antimicrobials and COG1410 were conducted and mixed in the 96-well plate. […] The experiments were conducted twice independently."}, "A. baumannii YQ4 [5]": {"tested_on": "A. baumannii YQ4", "assay": "ROS detection with DCFH-DA probe", "format": "cell-based, Acinetobacter baumannii"}, "[6]": {"tested_on": "A. baumannii YQ4 preformed biofilm", "assay": "Biofilm eradication assay, crystal violet", "format": "cell-based, Acinetobacter baumannii", "conditions": "24 h", "method": "Biofilm eradication assay was performed as described previously [24]. A. baumannii YQ4 culture at log phase was diluted into fresh LB broth to OD600 0.01 and 200 μl per well dispensed into a 96-well PVC plate. Plates were incubated at 37° C. for 48 h and washed with PBS for three times. Serial dilutions of COG1410 (0.5-128 μg/mL) were prepared using the same media and were dispensed with 200 μl into each well. Each concentration was determined in 8 wells. LB without COG1410 was used as untreated control. After incubation for another 24 h, the remaining biofilm was quantified as described above. The experiments were performed in triplicate."}, "A. baumannii YQ4 [7]": {"tested_on": "A. baumannii YQ4", "assay": "Bactericidal efficacy (LC99.9) in PBS with or without 50% human plasma", "format": "cell-based, Acinetobacter baumannii", "conditions": "2 h, listed as COG1410", "procedure": "Antibacterial activity in plasma of COG1410 was performed as described previously. […] After incubation with shaking at 200 rpm at 37° C. for 2 hours, the CFUs were counted on LB agar. LC99.9 indicates the lowest peptide concentration that kills ≥99.9% bacteria (ie. a 1000 fold reduction). The experiments were conducted independently for three times."}, "[8]": {"conditions": "single intravenous injection; cited from earlier work"}, "A. baumannii YQ4 [9]": {"tested_on": "A. baumannii YQ4", "assay": "ATP leakage assay", "format": "cell-based, Acinetobacter baumannii", "conditions": "1×MIC, 30 min", "method": "ATP leakage assay was performed using the Enhanced ATP Assay Kit of Beyotime (S0027) according to the manufacturer's manual. Briefly, the log-phase culture of A. baumannii YQ4 was prepared, washed and suspended in PBS as above. This suspension was exposed to 16 μg/ml COG1410, 16 μg/ml polymyxin B and 32 μg/ml tigecycline, respectively and incubated at 37° C. for 30 min. The supernatant was harvested and used for measurement of ATP levels. 100 μl of supernatant was mixed with 100 μl working solution and the chemiluminescence was measured by Biotek Synergy H1 plate reader. Untreated sample was set as negative control. The experiments were performed in triplicate."}, "[10]": {"assay": "Stability in 100% human plasma (inhibition zone on A. baumannii YQ4)", "format": "in vitro ADME"}, "[11]": {"tested_on": "Streptococcus pneumoniae, methicillin-sensitive Staphylococcus aureus, MRSA, Klebsiella pneumoniae and Pseudomonas aeruginosa", "format": "cell-based"}, "A. baumannii YQ4 [12]": {"tested_on": "A. baumannii YQ4", "assay": "Nematode killing assay (infection model)", "conditions": "NGM plate; 16 μg/ml COG1410 alone or 2 μg/ml COG1410 plus 1 μg/ml polymyxin B"}, "A. baumannii": {"tested_on": "A. baumannii", "assay": "Bactericidal efficacy in PBS, LB broth and saline", "format": "cell-based, Acinetobacter baumannii", "conditions": "1×MIC, 2 h"}, "[13]": {"tested_on": "normal human hepatic L02 cells", "assay": "Cytotoxicity, CCK8 assay", "conditions": "24 h", "method": "The cytotoxicity of COG1410 on normal liver cell L02 was assessed by Cell Counting Kit 8 (Solarbio, CA1210) according to the manufacturer's manual. Briefly, 100 μl human hepatic L02 cells were seeded in the 96-well plate with 4×10^3 cells per well in RPMI-1640 medium containing 20% FBS, and incubated at 37° C. in a 5% CO2 atmosphere for 24 h. The cells without exposure to peptide were used as negative control. Then, the L02 cells were incubated with different concentrations of COG1410 for another 24 h. 10 μl CCK8 solution was added to each well. After 2 h incubation, the optical absorbance at 450 nm was measured with BioTek synergy H1 plate reader. […] The experiments were done in triplicate."}, "PDR A. baumannii YQ4": {"tested_on": "PDR A. baumannii YQ4", "assay": "Dynamic time-kill assay in PBS", "method": "For dynamic time-kill assay, the overnight culture of A. baumannii YQ4 was transferred to fresh broth with initial OD600 0.01 and grown to the logarithmic phase. 1 ml culture was harvested, washed twice with 1× phosphate-buffered saline (PBS, pH7.4), containing 8 mM NaH2PO4, 2 mM KH2PO4, 2.6 mM KCl, 136 mM NaCl), and finally suspended in 1 ml PBS with OD600 0.5, which approximately corresponds to 1×10^8 CFU/ml. […] 100 μl aliquot was respectively taken at 0, 5, 10 and 30 min, serially diluted in PBS and plated on LB agar. The CFUs were counted after incubation at 37° C. for 18 h. […] Three independent experiments were performed."}}, "note": "Values joined by “and” are separate entries in the source; they are usually repeats but may differ in a detail not shown here. Equal values may be shown once. Read-outs that look alike come from different tables or passages of the source. Non-standard residues stand in square brackets, D forms with d. Residues, ends and D or L forms follow the SMILES beside them. Aib = CC(C)(N)C(=O)O"}
{"compound": "CN(C)c1cc(NC(=O)CNC(C)(C)C)c(O)c2c1C[C@H]1C[C@H]3[C@H](N(C)C)C(O)=C(C(N)=O)C(=O)[C@@]3(O)C(O)=C1C2=O", "note": "[tigecycline]", "values": [{"measurement": "MIC", "setting": "[1]", "result": 32, "unit": "µg/mL"}]}
{"compound": "CC(=O)N[C@@H](C)C(=O)N[C@@H](CO)C(=O)NC(C)(C)C(=O)N[C@@H](CC(C)C)C(=O)N[C@@H](CCCNC(=N)N)C(=O)N[C@@H](CCCCN)C(=O)N[C@@H](CC(C)C)C(=O)NC(C)(C)C(=O)N[C@@H](CCCCN)C(=O)N[C@@H](CCCNC(=N)N)C(=O)N[C@@H](CC(C)C)C(=O)N[C@@H](CC(C)C)C(N)=O", "note": "[SEQ ID NO: 1, acetyl-AS-aib-LRKL-aib-KRLL-amide] (Ac-AS[Aib]LRKL[Aib]KRLL-NH2)", "values": [{"measurement": "biofilm formation", "setting": "A. baumannii YQ4 biofilm; 0.5×MIC, 48 h", "result": "significantly reduced biofilm formation"}, {"measurement": "biofilm mass reduced, compared with untreated controls", "setting": "A. baumannii YQ4 biofilm; 1×MIC", "result": 55, "unit": "%"}, {"measurement": "effect of lipidA modification of LPS on antimicrobial efficacy", "setting": "[2]", "result": "did not change the antimicrobial efficacy"}, {"measurement": "MIC", "setting": "[3]; A. baumannii YQ4", "result": 11.3, "unit": "µM"}, {"measurement": "MIC", "setting": "[3]; A. baumannii YQ4, LB broth", "result": 16, "unit": "µg/mL"}, {"measurement": "minimal bactericidal concentration (MBC)", "setting": "[3]; A. baumannii YQ4, listed as COG1410", "result": "16 μg/ml and 11.3 μM"}, {"measurement": "MIC P. gingivalis", "setting": "P. gingivalis", "result": "16 to 64", "unit": "µg/mL"}, {"measurement": "increase of MIC", "setting": "A. baumanii YQ4", "result": 4, "unit": "fold"}, {"measurement": "working concentration in the combination", "setting": "A. baumannii YQ4 [4]; COG1410 combined with polymyxin B", "result": 2, "unit": "µg/mL"}, {"measurement": "FIC", "setting": "A. baumannii YQ4 [4]; in combination with Ceftazidime", "result": 0.31}, {"measurement": "FIC", "setting": "A. baumannii YQ4 [4]; in combination with polymyxin B", "result": 0.13}, {"measurement": "FIC", "setting": "A. baumannii YQ4 [4]; in combination with tetracycline", "result": 0.31}, {"measurement": "ROS production", "setting": "A. baumannii YQ4 [5]; 16 μg/ml", "result": "significantly increased ROS production"}, {"measurement": "more ROS detected after treatment", "setting": "A. baumannii YQ4 [5]; treatment for 20 min", "result": 30, "unit": "%"}, {"measurement": "mature biofilm dispersed", "setting": "[6]; 1×MIC", "result": "ca. 46%"}, {"measurement": "biofilm eradicated", "setting": "[6]; 4×MIC", "result": "more than 88%"}, {"measurement": "LC99.9", "setting": "A. baumannii YQ4 [7]; PBS with 50% human plasma", "result": "8 μg/ml and 5.6 μM"}, {"measurement": "LC99.9", "setting": "A. baumannii YQ4 [7]; PBS", "result": "2 μg/ml and 1.4 μM"}, {"measurement": "functional outcome", "setting": "[8]", "result": "significantly improved vestibulomotor function and spatial learning and memory"}, {"measurement": "ATP leakage", "setting": "A. baumannii YQ4 [9]", "result": "significantly more than untreated controls and the tigecycline treatment group"}, {"measurement": "EC50 (half of the red blood cells lysed)", "setting": "human erythrocytes; 1 h", "result": 441, "unit": "µg/mL"}, {"measurement": "hemolysis", "setting": "human erythrocytes; red cells of human, 128 μg/ml", "result": "less than 5%"}, {"measurement": "inhibition diameters", "setting": "[10]; 37° C., first 2 h", "result": "did not significantly change"}, {"measurement": "activity reduced", "setting": "[10]; 4 h", "result": 6.8, "unit": "%"}, {"measurement": "activity lost", "setting": "[10]; 10 h", "result": 20, "unit": "%"}, {"measurement": "activity retained", "setting": "[10]; after 10 h", "result": "more than 80%"}, {"measurement": "antimicrobial activity", "setting": "[11]", "result": "inactive"}, {"measurement": "survival of pre-infected nematodes", "setting": "A. baumannii YQ4 [12]", "result": "alleviated the death of infected nematodes, but the change was not statistically significantly"}, {"measurement": "bactericidal efficacy", "setting": "A. baumannii", "result": "near elimination"}, {"measurement": "half-maximal (EC50) toxicity concentration", "setting": "[13]", "result": 58.9, "unit": "µg/mL"}, {"measurement": "reduction in CFU", "setting": "PDR A. baumannii YQ4; 1×MIC, 30 min", "result": 6, "unit": "log"}, {"measurement": "decrease of CFU", "setting": "PDR A. baumannii YQ4; 1×MIC, within 5 min", "result": "~3", "unit": "logs"}, {"measurement": "killing of inoculum (1×10^8 CFU/ml)", "setting": "PDR A. baumannii YQ4; 5×MIC, within 5 min", "result": "completely eliminated"}]}
